{"source": "ChEMBL document CHEMBL5331054", "about": "“Antibacterial quaternary ammonium agents: Chemical diversity and biological mechanism” (Eur J Med Chem, 2022)", "key": {"[1]": {"system": "Staphylococcus aureus", "experiment": "Antibacterial activity against Staphylococcus aureus CCM 451608 assessed as reduction in bacterial growth inhibition incubated for 24 hrs by microbroth dilution method", "type": "functional"}, "[2]": {"system": "Staphylococcus aureus", "experiment": "Antibacterial activity against Staphylococcus aureus CCM 451608 assessed as reduction in bacterial growth inhibition incubated for 48 hrs by microbroth dilution method", "type": "functional"}, "[3]": {"system": "Pseudomonas aeruginosa", "experiment": "Antibacterial activity against Pseudomonas aeruginosa assessed as bacterial growth inhibition incubated for 72 hrs by microdilution method", "type": "functional"}, "[4]": {"system": "Escherichia coli", "experiment": "Antibacterial activity against Escherichia coli assessed as bacterial growth inhibition incubated for 72 hrs by microdilution method", "type": "functional"}, "[5]": {"system": "Enterococcus faecalis", "experiment": "Antibacterial activity against Enterococcus faecalis assessed as bacterial growth inhibition incubated for 72 hrs by microdilution method", "type": "functional"}, "[6]": {"system": "Staphylococcus aureus", "experiment": "Antibacterial activity against Staphylococcus aureus assessed as bacterial growth inhibition incubated for 72 hrs by microdilution assay", "type": "functional, organism-based", "conditions": "for MIC: Staphylococcus aureus, time 72 hrs"}, "[7]": {"system": "Staphylococcus aureus", "experiment": "Antibiofilm activity against methicillin-resistant Staphylococcus aureus assessed as inhibition of biofilm formation", "type": "functional"}, "[8]": {"system": "Bacillus cereus", "experiment": "Antibacterial activity against Bacillus cereus assessed as reduction in microbial growth after 18 hrs by MTT based broth dilution method", "type": "functional"}, "[9]": {"system": "Staphylococcus aureus", "experiment": "Antibacterial activity against methicillin-resistant Staphylococcus aureus assessed as bacterial growth inhibition", "type": "functional"}, "[10]": {"system": "Staphylococcus aureus", "experiment": "Antibacterial activity against methicillin- resistant Staphylococcus aureus assessed as bacterial growth inhibition incubated for 24 hrs", "type": "functional"}, "[11]": {"system": "Mycobacterium tuberculosis", "experiment": "Antibacterial activity against Mycobacterium tuberculosis Erdman assessed as bacterial growth inhibition", "type": "functional"}, "[12]": {"system": "Mycobacterium tuberculosis", "experiment": "Antimycobacterial activity against Mycobacterium tuberculosis assessed as reduction in mycobacterial growth", "type": "functional"}, "[13]": {"system": "Staphylococcus aureus", "experiment": "Antibacterial activity against Staphylococcus aureus assessed as bacterial growth inhibition measured after 24 hrs by micro-broth dilution method", "type": "functional"}, "[14]": {"system": "Escherichia coli", "experiment": "Antibacterial activity against Escherichia coli assessed as reduction bacterial cell growth", "type": "functional"}, "[15]": {"system": "Pseudomonas aeruginosa", "experiment": "Antibacterial activity against Pseudomonas aeruginosa assessed as inhibition of bacterial cell growth", "type": "functional"}, "[16]": {"system": "Enterococcus faecalis", "experiment": "Antibacterial activity against Enterococcus faecalis assessed as reduction in bacterial cell growth", "type": "functional"}, "[17]": {"system": "Staphylococcus aureus", "experiment": "Antimicrobial activity against Staphylococcus aureus assessed as reduction in bacterial growth", "type": "functional"}, "[18]": {"system": "Stenotrophomonas maltophilia", "experiment": "Antibacterial activity against Stenotrophomonas maltophilia assessed as inhibition of bacterial growth", "type": "functional"}, "[19]": {"system": "Staphylococcus aureus", "experiment": "Antibacterial activity against Staphylococcus aureus ATCC 29213 assessed as bacterial growth inhibition incubated for 24 hrs by broth dilution method", "type": "functional"}, "[20]": {"system": "Staphylococcus aureus", "experiment": "Antibacterial activity against Staphylococcus aureus assessed as bacterial growth inhibition", "type": "functional"}, "[21]": {"system": "Enterococcus faecium", "experiment": "Antibacterial activity against vancomycin-resistant Enterococcus faecium 700221 assessed as reduction in bacterial growth inhibition measured after 16 hrs by microplate reader assay", "type": "functional"}, "[22]": {"system": "Staphylococcus aureus", "experiment": "Antibacterial activity against methicillin-resistant Staphylococcus aureus assessed as bacterial growth inhibition measured after 16 hrs by microplate reader assay", "type": "functional"}, "[23]": {"system": "Staphylococcus epidermidis", "experiment": "Antibacterial activity against methicillin-resistant Staphylococcus epidermidis assessed as bacterial growth inhibition measured after 16 hrs by microplate reader assay", "type": "functional"}, "[24]": {"system": "Pseudomonas aeruginosa", "experiment": "Antibacterial activity against Pseudomonas aeruginosa assessed as reduction in bacterial cell growth", "type": "functional"}, "[25]": {"system": "Acinetobacter baumannii", "experiment": "Antibacterial activity against Acinetobacter baumannii assessed as inhibition of bacterial cell growth", "type": "functional"}, "[26]": {"system": "Klebsiella pneumoniae", "experiment": "Antibacterial activity against Klebsiella pneumoniae assessed as reduction in bacterial growth", "type": "functional"}, "[27]": {"conditions": "Pseudomonas aeruginosa, 72 h, read-out: MIC"}, "[28]": {"conditions": "Escherichia coli, 72 h, read-out: MIC"}}, "note": "pIC50: −log10 of the molar value.", "data": [{"molecule": "CCCCCCCCCCCCCCCC[n+]1ccc(C=NO)cc1", "values": [{"measurement": "MIC", "setting": "[1]", "value": 0.98, "unit": "µM"}, {"measurement": "MIC", "setting": "[2]", "value": 0.98, "unit": "µM"}]}, {"molecule": "CCCCCCCCCCCC[N+](C)(C)CC[N+](C)(C)CCCCCCCCCCCC", "values": [{"measurement": "MIC", "setting": "[3]; [27]", "value": 4, "unit": "µM"}, {"measurement": "MIC", "setting": "[4]; [28]", "value": 2, "unit": "µM"}, {"measurement": "MIC", "setting": "[5]", "value": 1, "unit": "µM"}, {"measurement": "MIC", "setting": "[6]", "value": 1, "unit": "µM"}]}, {"molecule": "CCCCCCCCCCCC[N+](C)(C)CCCCC[N+](C)(C)CCCCCCCCCCCC", "values": [{"measurement": "MIC", "setting": "[3]; [27]", "value": 4, "unit": "µM"}, {"measurement": "MIC", "setting": "[4]; [28]", "value": 1, "unit": "µM"}, {"measurement": "MIC", "setting": "[5]", "value": 1, "unit": "µM"}, {"measurement": "MIC", "setting": "[6]", "value": 1, "unit": "µM"}]}, {"molecule": "CCCCCCCCCCCC[N+](C)(C)CCN(C)CC[N+](C)(C)CCCCCCCCCCCC", "values": [{"measurement": "MIC", "setting": "[3]; [27]", "value": 4, "unit": "µM"}, {"measurement": "MIC", "setting": "[7]", "value": 1, "unit": "µM"}, {"measurement": "MIC", "setting": "[4]; [28]", "value": 1, "unit": "µM"}, {"measurement": "MIC", "setting": "[5]", "value": 2, "unit": "µM"}, {"measurement": "MIC", "setting": "[6]", "value": 1, "unit": "µM"}]}, {"molecule": "CCCCCCCCCCCC[N+](C)(C)CCC[N+](C)(C)CCCCCCCCCCCC", "values": [{"measurement": "MIC", "setting": "[3]; [27]", "value": 4, "unit": "µM"}, {"measurement": "MIC", "setting": "[4]; [28]", "value": 1, "unit": "µM"}, {"measurement": "MIC", "setting": "[5]", "value": 1, "unit": "µM"}, {"measurement": "MIC", "setting": "[6]", "value": 2, "unit": "µM"}]}, {"molecule": "CCCCCCCC[N+](C)(C)CC(=O)Nc1ccc(C(=O)/C=C/c2ccccc2F)cc1", "values": [{"measurement": "MIC", "setting": "[8]", "value": 2, "unit": "µM"}]}, {"molecule": "CCCCCCCCCCCC[N+](C)(C)CCCN(C)C", "values": [{"measurement": "MIC", "setting": "[9]", "value": 8, "unit": "µM"}, {"measurement": "MIC", "setting": "[10]", "value": 4, "unit": "µM"}]}, {"molecule": "CCCCCCc1ccc[n+](CCOC2C3CC4CC(C3)CC2C4)c1.CS(=O)(=O)[O-]", "note": "(stereo unspecified)", "values": [{"measurement": "MIC", "setting": "[11]", "value": 1.6, "unit": "µg/mL"}, {"measurement": "MIC", "setting": "[12]", "value": 3.1, "unit": "µg/mL"}]}, {"molecule": "O=C(C[n+]1cc(-c2ccc(Cl)c(Cl)c2)n2c1CCC2)Nc1ccc(Oc2ccccc2)cc1", "values": [{"measurement": "MIC", "setting": "[13]", "value": 4, "unit": "µM"}]}, {"molecule": "CCCCCCCCCCCC[N+](C)(C)CCCCCCCCCCCC", "values": [{"measurement": "MIC", "setting": "[3]; [27]", "value": 32, "unit": "µM"}, {"measurement": "MIC", "setting": "[4]; [28]", "value": 8, "unit": "µM"}, {"measurement": "MIC", "setting": "[5]", "value": 1, "unit": "µM"}, {"measurement": "MIC", "setting": "[6]", "value": 1, "unit": "µM"}]}, {"molecule": "CCCCCCCCCC[n+]1cccc(CN(Cc2ccc[n+](CCCCCCCCCC)c2)Cc2ccc[n+](CCCCCCCCCC)c2)c1", "values": [{"measurement": "MIC", "setting": "[14]", "value": 1, "unit": "µM"}, {"measurement": "MIC", "setting": "[15]", "value": 2, "unit": "µM"}, {"measurement": "MIC", "setting": "[16]", "value": 1, "unit": "µM"}, {"measurement": "MIC", "setting": "[17]", "value": 0.5, "unit": "µM"}, {"measurement": "MIC", "setting": "[9]", "value": 0.5, "unit": "µM"}]}, {"molecule": "CCCCCC[N+](C)(C)CCOc1ccc(OCC[N+](C)(C)CCCCCC)cc1.[Br-].[Br-]", "values": [{"measurement": "MIC", "setting": "[16]", "value": 128, "unit": "µg/mL"}, {"measurement": "MIC", "setting": "[17]", "value": 32, "unit": "µg/mL"}, {"measurement": "MIC", "setting": "[18]", "value": 64, "unit": "µg/mL"}]}, {"molecule": "CCCCCCCCCCCCOC(=O)C[N+](C)(C)CCC[N+](C)(C)CC(=O)OCCCCCCCCCCCC.[Br-].[Br-]", "values": [{"measurement": "MIC", "setting": "[3]", "value": 300, "unit": "µM"}, {"measurement": "MIC", "setting": "[4]", "value": 20, "unit": "µM"}, {"measurement": "pIC50", "setting": "[6]", "value": 4.70}]}, {"molecule": "CCCC1OCc2c(CO)c(C[N+](C)(C/C=C/C#CC(C)(C)C)Cc3cccc4ccccc34)nc(C)c2O1.[Br-]", "note": "(stereo unspecified)", "values": [{"measurement": "MIC", "setting": "[19]", "value": 4, "unit": "µg/mL"}]}, {"molecule": "CCCCCCCC[N+](C)(C)CCOc1ccc(OCC[N+](C)(C)CCCCCCCC)cc1.[Br-].[Br-]", "values": [{"measurement": "MIC", "setting": "[16]", "value": 4, "unit": "µg/mL"}, {"measurement": "MIC", "setting": "[17]", "value": 0.5, "unit": "µg/mL"}, {"measurement": "MIC", "setting": "[18]", "value": 1, "unit": "µg/mL"}]}, {"molecule": "CCCCCCCCCC[N+](C)(C)Cc1ccc(C[N+](C)(C)CCCCCCCCCC)cc1", "values": [{"measurement": "MIC", "setting": "[13]", "value": 6.1, "unit": "µM"}]}, {"molecule": "CCCCCCCCCCCC[N+](C)(C)c1ccc(C(c2ccc(N(C)C)cc2)c2ccc(N(C)C)cc2)cc1", "values": [{"measurement": "MIC", "setting": "[17]", "value": 0.25, "unit": "µM"}]}, {"molecule": "CCCCCCCCCCCCCCCCCC[N+](CC)(CC)c1ccc(C(c2ccc([N+](C)(CC)CC)cc2)c2ccc([N+](C)(CC)CC)cc2)cc1", "values": [{"measurement": "MIC", "setting": "[14]", "value": 1, "unit": "µM"}, {"measurement": "MIC", "setting": "[15]", "value": 8, "unit": "µM"}, {"measurement": "MIC", "setting": "[16]", "value": 1, "unit": "µM"}, {"measurement": "MIC", "setting": "[17]", "value": 1, "unit": "µM"}, {"measurement": "MIC", "setting": "[9]", "value": 0.5, "unit": "µM"}]}, {"molecule": "CCCCCCCCS(=O)(=O)Nc1ccc(-c2ccc(Cl)cc2)cc1C(=O)C(=O)NCCC[N+](C)(C)C.[I-]", "values": [{"measurement": "MIC", "setting": "[20]", "value": 8, "unit": "µg/mL"}]}, {"molecule": "CCCCCCCCCCCCCCCCn1cc[n+](Cc2cccc(F)c2)c1C", "values": [{"measurement": "MIC", "setting": "[21]", "value": 1.17, "unit": "µM"}, {"measurement": "MIC", "setting": "[22]", "value": 1.17, "unit": "µM"}, {"measurement": "MIC", "setting": "[23]", "value": 1.17, "unit": "µM"}]}, {"molecule": "CCCCCCCCS(=O)(=O)Nc1ccc(-c2ccc(-c3ccccc3)cc2)cc1C(=O)C(=O)NCCC[N+](C)(C)C", "values": [{"measurement": "MIC", "setting": "[13]", "value": 4, "unit": "µM"}]}, {"molecule": "CCCCCCCCC[n+]1ccc(Oc2ccc(-c3ccc(Oc4cc[n+](CCCCCCCCC)cc4)cc3)cc2)cc1.[Br-].[Br-]", "values": [{"measurement": "MIC", "setting": "[24]", "value": "< 0.25", "unit": "µg/mL"}, {"measurement": "MIC", "setting": "[25]", "value": "< 0.25", "unit": "µg/mL"}, {"measurement": "MIC", "setting": "[14]", "value": "< 0.25", "unit": "µg/mL"}, {"measurement": "MIC", "setting": "[26]", "value": "< 0.25", "unit": "µg/mL"}, {"measurement": "MIC", "setting": "[9]", "value": "< 0.25", "unit": "µg/mL"}]}]}
